Data from patent US12077503B2, “Substituted cyclic amides and their use as herbicides” (FMC CORPORATION, priority 2015, dated 2024).

Columns and labels:
Assay type in all cases: in vivo
[1] = system: corn (Zea mays); assay: Test G Pre-Emergence Protocol; conditions: evaluated after 13 days
Procedure: (§1) Seeds of corn (Zea mays), giant foxtail (Setaria faberi), barnyardgrass (Echinochloa crus-galli), ivy-leaved morning glory (Ipomoea hederacea), redroot pigweed (Amaranthus retroflexus) and velvetleaf (Abutilon theophrasti) were sown in standard soil in pots. After cultivation for one day under controlled conditions in a glasshouse (at 24/16° C., day/night; 14 hours light; 65% humidity), the plants were sprayed with an aqueous spray solution derived from the formulation of the technical active ingredient in acetone/water (50:50) solution containing 0.5% Tween 20 (polyoxyethylene sorbitan monolaurate, CAS RN 9005-64-5) to give a final dose of 15.625, 62.5 or 250 g/ha of test compound.
(§2) The test plants were then grown on under controlled conditions in a glasshouse (at 24/16° C., day/night; 14 hours light; 65% humidity) and watered twice daily. After 13 days the test was evaluated (100=total damage to plant; 0=no damage to plant). A dash (-) means no test result.

[2] = system: velvetleaf (Abutilon theophrasti); assay: Test G Pre-Emergence Protocol; conditions: evaluated after 13 days
Procedure: as §1, §2

[3] = system: barnyardgrass (Echinochloa crus-galli); assay: Test G Pre-Emergence Protocol; conditions: evaluated after 13 days
Procedure: as §1, §2

[4] = system: redroot pigweed (Amaranthus retroflexus); assay: Test G Pre-Emergence Protocol; conditions: evaluated after 13 days
Procedure: as §1, §2

[5] = system: ivy-leaved morning glory (Ipomoea hederacea); assay: Test G Pre-Emergence Protocol; conditions: evaluated after 13 days
Procedure: as §1, §2

[6] = system: giant foxtail (Setaria faberi); assay: Test G Pre-Emergence Protocol; conditions: evaluated after 13 days
Procedure: as §1, §2

[7] = system: corn (Zea mays); assay: Test G Post-Emergence Protocol
Procedure: as §1, with “8 days” for “one day”
as §2

[8] = system: velvetleaf (Abutilon theophrasti); assay: Test G Post-Emergence Protocol
Procedure: as §1, with “8 days” for “one day”
as §2

[9] = system: barnyardgrass (Echinochloa crus-galli); assay: Test G Post-Emergence Protocol
Procedure: as §1, with “8 days” for “one day”
as §2

[10] = system: redroot pigweed (Amaranthus retroflexus); assay: Test G Post-Emergence Protocol
Procedure: as §1, with “8 days” for “one day”
as §2

[11] = system: ivy-leaved morning glory (Ipomoea hederacea); assay: Test G Post-Emergence Protocol
Procedure: as §1, with “8 days” for “one day”
as §2

[12] = system: giant foxtail (Setaria faberi); assay: Test G Post-Emergence Protocol
Procedure: as §1, with “8 days” for “one day”
as §2

[13] = 62.5 g ai/ha, 100=total damage to plant, 0=no damage to plant
[14] = 15.625 g ai/ha, evaluated after 13 days (100=total damage to plant; 0=no damage to plant)
[15] = 62.5 g ai/ha, evaluated after 13 days, 100=total damage to plant, 0=no damage to plant
[16] = 250 g ai/ha, evaluated after 13 days, 100=total damage to plant, 0=no damage to plant

Cc1cccc(NC(=O)[C@H]2C(=O)N(C)C[C@@H]2c2ccc(C(F)(F)F)cc2)c1S(C)(=O)=O (racemic) [Compound 1677]
Corn damage rating (100=total damage to plant; 0=no damage to plant) ([1]; 15.625 g ai/ha): 0 | Corn damage rating [1, 13]: 0 | Corn damage rating (100=total damage to plant; 0=no damage to plant) ([1]; 250 g ai/ha): 0 | Velvetleaf damage rating (100=total damage to plant; 0=no damage to plant) ([2]; 15.625 g ai/ha): 0 | Velvetleaf damage rating [2, 13]: 0 | Velvetleaf damage rating (100=total damage to plant; 0=no damage to plant) ([2]; 250 g ai/ha): 0 | Barnyardgrass damage rating (100=total damage to plant; 0=no damage to plant) ([3]; 15.625 g ai/ha): 0 | Barnyardgrass damage rating [3, 13]: 0 | Barnyardgrass damage rating (100=total damage to plant; 0=no damage to plant) ([3]; 250 g ai/ha): 10 | Pigweed, Redroot damage rating (100=total damage to plant; 0=no damage to plant) ([4]; 15.625 g ai/ha): 0 | Pigweed, Redroot damage rating [4, 13]: 0 | Pigweed, Redroot damage rating (100=total damage to plant; 0=no damage to plant) ([4]; 250 g ai/ha): 0 | Morningglory, Ivy-leaved damage rating (100=total damage to plant; 0=no damage to plant) ([5]; 15.625 g ai/ha): 0 | Morningglory, Ivy-leaved damage rating [5, 13]: 0 | Morningglory, Ivy-leaved damage rating (100=total damage to plant; 0=no damage to plant) ([5]; 250 g ai/ha): 0 | Foxtail, Giant damage rating (100=total damage to plant; 0=no damage to plant) ([6]; 15.625 g ai/ha): 10 | Foxtail, Giant damage rating [6, 13]: 40 | Foxtail, Giant damage rating (100=total damage to plant; 0=no damage to plant) ([6]; 250 g ai/ha): 70 | Corn damage rating [7, 14]: 0 | Corn damage rating [7, 15]: 0 | Corn damage rating [7, 16]: 0 | Velvetleaf damage rating [8, 14]: 0 | Velvetleaf damage rating [8, 15]: 0 | Velvetleaf damage rating [8, 16]: 0 | Barnyardgrass damage rating [9, 14]: 0 | Barnyardgrass damage rating [9, 15]: 10 | Barnyardgrass damage rating [9, 16]: 10 | Pigweed, Redroot damage rating [10, 14]: 0 | Pigweed, Redroot damage rating [10, 15]: 0 | Pigweed, Redroot damage rating [10, 16]: 0 | Morningglory, Ivy-leaved damage rating [11, 14]: 0 | Morningglory, Ivy-leaved damage rating [11, 15]: 0 | Morningglory, Ivy-leaved damage rating [11, 16]: 0 | Foxtail, Giant damage rating [12, 14]: 10 | Foxtail, Giant damage rating [12, 15]: 30 | Foxtail, Giant damage rating [12, 16]: 50
